Read-outs that look alike come from different tables or passages of the source. Numbered stars: 1 amine (or outer) side, 2 acyl side, 3 side chain; on linkers, the order of the positions; unused ones are H or OH. Bridge positions count the residues as written; N and C are the ends. Square brackets hold non-standard residues; d marks the D form. Peptide text beside a SMILES is read from it. 1Nal = N[C@@H](Cc1cccc2ccccc12)C(=O)O; TBMB = c1c(C[*:1])cc(C[*:3])cc1C[*:2]; Tle = CC(C)(C)[C@H](N)C(=O)O; βAla = NCCC(=O)O; Sar = CNCC(=O)O

As usually defined, the Ki is the equilibrium dissociation constant of an inhibitor or competing ligand from its target. The Kd is a measure of binding affinity in units of concentration. Low readings indicate higher affinity, high ones lower affinity.

In the assay the target is T1, MT1-MMP hemopexin domain (Homo sapiens, UniProt P50281).
T1 construct: residues Cys319-Gly511 from the human gene; His6 (N); made in house; host or cells: HEK293 cells (transient, pEXPR-IBA42 vector)
In words: Fluorescence polarisation competition binding assay. From the text: The MT1-MMP hemopexin-like repeats (also known as the MT1-MMP hemopexin domain), residues Cys319-Gly511 from the human gene, were transiently expressed in HEK293 cells as secreted N-terminally His6-tagged soluble protein, using the pEXPR-IBA42 (IBA) expression vector. Following expression, the protein was purified by Nickel-NTA affinity chromatography followed by gel filtration, and purity was checked by SDS-PAGE. Batch to batch variability was also monitored by fluorescence thermal shift experiments in the presence/absence of a hemopexin domain binding bicycle.
Binding affinity was measured using competition assays using Fluorescence Polarisation (anisotropy).
Fluoresceination may be performed on the N-terminal amino group of the peptide, which is separated from the bicycle core sequence by a sarcosine spacer (usually Sar5). This can be done during Fmoc solid phase synthesis or post-synthetically (after cyclisation with TBMB and purification) if the N-terminal amino group is unique to the peptide. Fluoresceination can also be performed on the C-terminus, usually on a Lysine introduced as the first C-terminal residue, which is then separated from the bicycle core sequence by a sarcosine spacer (usually Sar6). Thus, N-terminal tracers can have a molecular format described as Fluo-Gly-Sar5-A(BicycleCoreSequence), and (BicycleCoreSequence)-A-Sar6-K(Fluo) for a C-terminally fluoresceinated construct. Fluorescent tracers used in the Examples are A-(17-69)-A-Sar6-K(Fluo), A-(17-69-07)-A-Sar6-K(Fluo), and A-(17-69-12)-A-Sar6-K(Fluo).
Here, a pre-formed complex of PEX with the fluorescent PEX-binding tracer is titrated with free, non-fluoresceinated bicyclic peptide. Since all 17-69-based peptides are expected to bind at the same site, the titrant will displace the fluorescent tracer from PEX. Dissociation of the complex can be measured quantitatively, and the Kd of the competitor (titrant) to the target protein determined. The advantage of the competition method is that the affinities of non-fluoresceinated bicyclic peptides can be determined accurately and rapidly.
Subsequently, the non-fluorescent competitor bicyclic peptide (usually just the bicycle core sequence) is titrated, such that it displaces the fluorescent tracer from the target protein. The displacement of the tracer is measured and associated with a drop in fluorescence polarisation. The drop in fluorescence polarisation is proportional to the fraction of target protein bound with the non-fluorescent titrant, and thus is a measure of the affinity of titrant to target protein.
The raw data is fit to the analytical solution of the cubic equation that describes the equilibria between fluorescent tracer, titrant, and binding protein. The fit requires the value of the affinity of fluorescent tracer to the target protein, which can be determined separately by direct binding FP experiments (see previous section).

Setting [1] is: human MT1-MMP, bicycle peptides, read-out: Binding Affinity Ki (h).

For `C[C@H](N)C(=O)N[C@H]1CN(C)Cc2cc3cc(c2)CN(C)C[C@@H](C(N)=O)NC(=O)[C@H](C(C)(C)C)NC(=O)[C@H](CC(=O)O)NC(=O)[C@H](Cc2ccc(O)cc2)NC(=O)[C@H](Cc2ccccc2)NC(=O)[C@H](CC(=O)O)NC(=O)[C@H](CCC(=O)O)NC(=O)[C@H](CSC3)NC(=O)[C@@H](C)NC(=O)[C@H](Cc2cccc3ccccc23)NC(=O)[C@H](CCC(=O)O)NC(=O)[C@H](CC(N)=O)NC(=O)[C@@H](C)NC1=O` [17-69-07-N452, A(Dap(Me))(D-Ala)NE(1Nal)(D-Ala)CEDFYD(tBuGly)(Dap(Me))], the Ki under setting [1] worked out at 4 nM.
The molecule `C[C@H](NC(=O)CN(C)C(=O)CN(C)C(=O)CN(C)C(=O)CN(C)C(=O)CN(C)C(=O)CN(C)C(=O)CN(C)C(=O)CN(C)C(=O)CN(C)C(=O)CN(C)C(=O)CCN)C(=O)N[C@H]1CSCc2cc3cc(c2)CSC[C@H](NC(=O)[C@@H](C)NC(=O)[C@H](Cc2cccc4ccccc24)NC(=O)[C@H](CCC(=O)O)NC(=O)[C@H](CC(N)=O)NC(=O)[C@@H](C)NC1=O)C(=O)N[C@@H](CCC(=O)O)C(=O)N[C@@H](CC(=O)O)C(=O)N[C@@H](Cc1ccccc1)C(=O)N[C@@H](Cc1ccc(O)cc1)C(=O)N[C@@H](CC(=O)O)C(=O)N[C@@H](C(C)(C)C)C(=O)N[C@H](C(N)=O)CSC3` [17-69-07-N241, H-(β-Ala)-Sar10-Ala-Cys-(D-Ala)-Asn-Glu-(1Nal)-(D-Ala)-Cys-Glu-Asp-Phe-Tyr-Asp-(tBuGly)-Cys-NH2, reference compound] (H-[βAla][Sar][Sar][Sar][Sar][Sar][Sar][Sar][Sar][Sar][Sar]AC[dA]NE[1Nal][dA]CEDFYD[Tle]C-NH2; linker 13-19-26 via TBMB) registered a Kd of 0.23 nM.
On to `CC(=O)N[C@@H](C)C(=O)N[C@H]1CN(C)Cc2cc3cc(c2)CN(C)C[C@H](NC(=O)[C@@H](C)NC(=O)[C@H](Cc2cccc4ccccc24)NC(=O)[C@H](CCC(=O)O)NC(=O)[C@H](CC(N)=O)NC(=O)[C@@H](C)NC1=O)C(=O)N[C@@H](CCC(=O)O)C(=O)N[C@@H](CC(=O)O)C(=O)N[C@@H](Cc1ccccc1)C(=O)N[C@@H](Cc1ccc(O)cc1)C(=O)N[C@@H](CC(=O)O)C(=O)N[C@@H](C(C)(C)C)C(=O)N[C@H](C(N)=O)CSC3` [17-69-07-N470, Ac-A(Dap(Me))(D-Ala)NE(1Nal)(D-Ala)(Dap(Me))EDFYD(tBuGly)C], for which the affinity corresponds to a Ki of 8.3 nM.
As for `C#CCCC(=O)N[C@H](CC(=O)O)C(=O)N[C@H](CC(=O)O)C(=O)N[C@H](CC(=O)O)C(=O)N(C)CC(=O)N(C)CC(=O)N[C@@H](C)C(=O)N[C@H]1CN(C)Cc2cc3cc(c2)CN(C)C[C@@H](C(N)=O)NC(=O)[C@H](C(C)(C)C)NC(=O)[C@H](CC(=O)O)NC(=O)[C@H](Cc2ccc(O)cc2)NC(=O)[C@H](Cc2ccccc2)NC(=O)[C@H](CC(=O)O)NC(=O)[C@H](CCC(=O)O)NC(=O)[C@H](CSC3)NC(=O)[C@@H](C)NC(=O)[C@H](Cc2cccc3ccccc23)NC(=O)[C@H](CCC(=O)O)NC(=O)[C@H](CC(N)=O)NC(=O)[C@@H](C)NC1=O` [17-69-07-N471, (PYA)-(D-Asp)3-Sar2-A(Dap(Me))(D-Ala)NE(1Nal)(D-Ala)CEDFYD(tBuGly)(Dap(Me))], under setting [1], the Ki amounted to 4.6 nM.
The same measure, in the same setting: for `CC(=O)N[C@H]1CN(C)Cc2cc3cc(c2)CN(C)C[C@@H](C(N)=O)NC(=O)[C@H](C(C)(C)C)NC(=O)[C@H](CC(=O)O)NC(=O)[C@H](Cc2ccc(O)cc2)NC(=O)[C@H](Cc2ccccc2)NC(=O)[C@H](CC(=O)O)NC(=O)[C@H](CCC(=O)O)NC(=O)[C@H](CSC3)NC(=O)[C@@H](C)NC(=O)[C@H](Cc2cccc3ccccc23)NC(=O)[C@H](CCC(=O)O)NC(=O)[C@H](CC(N)=O)NC(=O)[C@@H](C)NC1=O` [17-69-07-N461, Ac(Dap(Me))(D-Ala)NE(1Nal)(D-Ala)CEDFYD(tBuGly)(Dap(Me))] the value was 6 nM; for `C#CCCC(=O)NCCC(=O)N(C)CC(=O)N(C)CC(=O)N(C)CC(=O)N(C)CC(=O)N(C)CC(=O)N[C@@H](C)C(=O)N[C@H]1CN(C)Cc2cc3cc(c2)CN(C)C[C@@H](C(N)=O)NC(=O)[C@H](C(C)(C)C)NC(=O)[C@H](CC(=O)O)NC(=O)[C@H](Cc2ccc(O)cc2)NC(=O)[C@H](Cc2ccccc2)NC(=O)[C@H](CC(=O)O)NC(=O)[C@H](CCC(=O)O)NC(=O)[C@H](CSC3)NC(=O)[C@@H](C)NC(=O)[C@H](Cc2cccc3ccccc23)NC(=O)[C@H](CCC(=O)O)NC(=O)[C@H](CC(N)=O)NC(=O)[C@@H](C)NC1=O` [17-69-07-N472, (PYA)-(B-Ala)-Sar5-A(Dap(Me))(D-Ala)NE(1Nal)(D-Ala)CEDFYD(tBuGly)(Dap(Me))], 3.4 nM; for `CC(=O)NCCC(=O)N(C)CC(=O)N(C)CC(=O)N(C)CC(=O)N(C)CC(=O)N(C)CC(=O)N(C)CC(=O)N(C)CC(=O)N(C)CC(=O)N(C)CC(=O)N(C)CC(=O)N[C@@H](C)C(=O)N[C@H]1CN(C)Cc2cc3cc(c2)CN(C)C[C@@H](C(N)=O)NC(=O)[C@H](C(C)(C)C)NC(=O)[C@H](CC(=O)O)NC(=O)[C@H](Cc2ccc(O)cc2)NC(=O)[C@H](Cc2ccccc2)NC(=O)[C@H](CC(=O)O)NC(=O)[C@H](CCC(=O)O)NC(=O)[C@H](CSC3)NC(=O)[C@@H](C)NC(=O)[C@H](Cc2cccc3ccccc23)NC(=O)[C@H](CCC(=O)O)NC(=O)[C@H](CC(N)=O)NC(=O)[C@@H](C)NC1=O` [17-69-07-N454, Ac-(B-Ala)-Sar10-A(Dap(Me))(D-Ala)NE(1Nal)(D-Ala)CEDFYD(tBuGly)(Dap(Me))], 3 nM.
In the case of `C#CCCC(=O)N[C@H](CC(=O)O)C(=O)N[C@H](CC(=O)O)C(=O)N[C@H](CC(=O)O)C(=O)N(C)CC(=O)N(C)CC(=O)N[C@@H](C)C(=O)N[C@H]1CN(C)Cc2cc3cc(c2)CN(C)C[C@H](NC(=O)[C@@H](C)NC(=O)[C@H](Cc2cccc4ccccc24)NC(=O)[C@H](CCC(=O)O)NC(=O)[C@H](CC(N)=O)NC(=O)[C@@H](C)NC1=O)C(=O)N[C@@H](CCC(=O)O)C(=O)N[C@@H](CC(=O)O)C(=O)N[C@@H](Cc1ccccc1)C(=O)N[C@@H](Cc1ccc(O)cc1)C(=O)N[C@@H](CC(=O)O)C(=O)N[C@@H](C(C)(C)C)C(=O)N[C@H](C(N)=O)CSC3` [17-69-07-N473, (PYA)-(D-Asp)3-Sar2-A(Dap(Me))(D-Ala)NE(1Nal)(D-Ala)(Dap(Me))EDFYD(tBuGly)C], the Ki came to 7.3 nM.
With `C[C@H](NC(=O)CN(C)C(=O)CN(C)C(=O)CN(C)C(=O)CN(C)C(=O)CN(C)C(=O)CN(C)C(=O)CN(C)C(=O)CN(C)C(=O)CN(C)C(=O)CN(C)C(=O)CCN)C(=O)N[C@H]1CN(C)Cc2cc3cc(c2)CN(C)C[C@@H](C(N)=O)NC(=O)[C@H](C(C)(C)C)NC(=O)[C@H](CC(=O)O)NC(=O)[C@H](Cc2ccc(O)cc2)NC(=O)[C@H](Cc2ccccc2)NC(=O)[C@H](CC(=O)O)NC(=O)[C@H](CCC(=O)O)NC(=O)[C@H](CSC3)NC(=O)[C@@H](C)NC(=O)[C@H](Cc2cccc3ccccc23)NC(=O)[C@H](CCC(=O)O)NC(=O)[C@H](CC(N)=O)NC(=O)[C@@H](C)NC1=O` [17-69-07-N451, (B-Ala)-Sar10-A(Dap(Me))(D-Ala)NE(1Nal)(D-Ala)CEDFYD(tBuGly)(Dap(Me))], the Ki under setting [1] worked out at 3.7 nM.
On the same count and under the same terms, under `C#CCCC(=O)N[C@@H](C)C(=O)N[C@H]1CN(C)Cc2cc3cc(c2)CN(C)C[C@@H](C(N)=O)NC(=O)[C@H](C(C)(C)C)NC(=O)[C@H](CC(=O)O)NC(=O)[C@H](Cc2ccc(O)cc2)NC(=O)[C@H](Cc2ccccc2)NC(=O)[C@H](CC(=O)O)NC(=O)[C@H](CCC(=O)O)NC(=O)[C@H](CSC3)NC(=O)[C@@H](C)NC(=O)[C@H](Cc2cccc3ccccc23)NC(=O)[C@H](CCC(=O)O)NC(=O)[C@H](CC(N)=O)NC(=O)[C@@H](C)NC1=O` [17-69-07-N443, PYA-A(Dap(Me))(D-Ala)NE(1Nal)(D-Ala)CEDFYD(tBuGly)(Dap(Me))] stands 3.2 nM.
The molecule `CC(=O)NCCC(=O)N(C)CC(=O)N(C)CC(=O)N(C)CC(=O)N(C)CC(=O)N(C)CC(=O)N(C)CC(=O)N(C)CC(=O)N(C)CC(=O)N(C)CC(=O)N(C)CC(=O)N[C@@H](C)C(=O)N[C@H]1CNCc2cc3cc(c2)CSC[C@H](NC(=O)[C@@H](C)NC(=O)[C@H](Cc2cccc4ccccc24)NC(=O)[C@H](CCC(=O)O)NC(=O)[C@H](CC(N)=O)NC(=O)[C@@H](C)NC1=O)C(=O)N[C@@H](CCC(=O)O)C(=O)N[C@@H](CC(=O)O)C(=O)N[C@@H](Cc1ccccc1)C(=O)N[C@@H](Cc1ccc(O)cc1)C(=O)N[C@@H](CC(=O)O)C(=O)N[C@@H](C(C)(C)C)C(=O)N[C@H](C(N)=O)CNC3` [17-69-07-N455, Ac-(B-Ala)-Sar10-A(Dap)(D-Ala)NE(1Nal)(D-Ala)CEDFYD(tBuGly)(Dap)] yielded a Ki (Binding Affinity Ki (h), human MT1-MMP, bicycle peptides) of 4 nM.

(Values after patent publication US11730819B2, “Peptide derivatives having novel linkage structures” (priority 2016, dated 2023).)
